Data set [1] has as its system J774.2 macrophage. The experiment in a line: Cytocompatibility, MUSE Count and Viability Assay (Example 2). Type of data set: cell-based, mouse. The settings on record: 24 hours of treatment, 32 μM Ac2-26. How it is done: Macrophage culture and characterization: J774.2 murine macrophages (Sigma-Aldrich) were expanded at 4-9×10^5 cells/mL in growth media consisting of Dulbecco's Modified Eagle's Medium (Sigma-Aldrich) containing 4.5 g/L glucose, 2 mM L-glutamine, 10% v/v FBS, 100 U/m penicillin, and 100 μg/mL streptomycin. Cells were passaged using Accutase™ (StemCell Technologies) and used at passage 6-9 for all experiments. The cells were detached with Accutase™ and gentle scraping, counted, and re-suspended in flow cytometry buffer containing 2% w/v bovine serum albumin (BSA, heat shock fraction free of proteases, globulin, and fatty acids, Sigma-Aldrich) and 0.1% w/v sodium azide (Sigma-Aldrich). To minimize non-specific binding of immunoglobin to Fc receptors, macrophages were incubated with anti-mouse CD16/32 antibody (TrueStain FcX™, Biolegend) at 1 μg/1×10^5 cells for 10 minutes at 4° C. […] All samples were analyzed using Attune NxT Acoustic Focusing Cytometer (Thermo Fisher) with at least 2000 events counted per condition.
Cytocompatibility: Macrophages were seeded at 2.1×10^5 cells/cm^2 on 24 well plates and treated with 32 μM of Ac2-26 or 320 μM PA co-assemblies (final Ac2-26 concentration of 32 μM) for 24 hours. […] Cells were detached by Accutase treatment for 20 minutes and counted using a MUSE® Count and Viability Assay Kit and cytometer (Emd millipore).

The subject of data set [2] is J774.2 macrophages. The experiment in a line: Cellular uptake and localization of ApoA1-Ac2-26 PA. Type of data set: cell-based, mouse. How it is done:
Cellular uptake and localization of ApoA1-Ac2-26 PA: PAs containing 40 mol % ApoA1 PA, 10 mol % MMP-Ac2-26 or ROS-Ac2-26 PA, 45.5 mol % E2 filler PA, and 4.5 mol % E2 filler PA with AF546 were co-assembled as described above and aged at least 1 week in PBS at 4° C. to promote nanofiber formation. Macrophages were seeded onto 6-channel μ-Slide VI 0.4 (ibidi) at 2.1×10^5 cells/cm^2 and allowed to adhere for 24 hours before adding 0.33 μM 10% MMP- or ROS-Ac2-26 PA and incubated at 37° C. for 1 or 24 hours. At each time point, the samples were fixed with 4% paraformaldehyde for 10 minutes, followed by permeabilization with 0.125% Triton-X for 10 minutes. The samples were rinsed twice with PBS and incubated with blocking buffer consisting of 2% w/v BSA for one hour at room temperature before incubating with 20 μg/mL LAMP1 antibody (rabbit polyclonal, abcam) for 12-18 hours at 4° C. The samples were rinsed twice with PBS containing 0.01% Tween-20 at one hour per rinse followed by an hour rinse with PBS before adding 2 μg/mL donkey anti-rabbit Alexa Fluor Plus 647 (Highly cross-adsorbed secondary antibody, Invitrogen) for 12-18 hours at 4° C. The samples were rinsed twice with PBS before adding 5 μg/mL 4′,6-Diamidino-2-Phenylindole (DAPI, ThermoFisher Scientific) and phalloidin (1:1000 dilution, CruzFluor™ 488 conjugate, Santa Cruz Biotechnology) for one hour at room temperature. Samples were rinsed and stored in PBS until image analysis. Microscopy was performed using Zeiss 880 confocal microscopy at 63× magnification with numerical aperture of 1.4. Lasers at 405, 488, 561, and 633 nm were used to collect images through Multi Channel acquisition, which uses a separate scan for each channel to avoid spectral overlap. 3D images were created using z-stacks with 9-14 μm thick sections compiled from 0.22 μm slices using a line step of 1, speed of 8, and image size of 1024×1024 pixels at 16 bit depth. To examine colocalization of PAs to endosomes/lysosomes, Manders coefficient calculations using the Coloc 2 plugin from Fiji were used.

Regarding “10% MMP-Ac2-26 PA: co-assembly of 10 mol % MMP-Ac2-26 PA, 50 mol % E2 filler PA, and 40% ApoA1 PA (VVAAEEGGGPQGIWGQGKAMVSEFLKQAWFIENEEQEYVQTVK)”, the J774.2 macrophage viability result in data set [1] is on record as “No significant differences”. In addition, in data set [2] (24 hours of treatment), the “average Manders coefficient, LAMP1 to PA colocalization” value worked out at 0.79 and the “average Manders coefficient, PA to LAMP1 colocalization” value is on record as 0.48. For the same substance, the “cellular retention of PAs” value in data set [2] (confocal microscopy) is “found in the extracellular space”.

For the origin of these results see patent publication US12214076B2, “Drug delivery vehicles for atherosclerosis nanomedicine” (Northwestern University, priority 2019, dated 2025).
